Laboratory results taken from publication PMC1940322, “The Effect of PPARα, PPARδ, PPARγ, and PPARpan Agonists on Body Weight, Body Mass, and Serum Lipid Profiles in Diet-Induced Obese AKR/J Mice” (PPAR Research, 2007).
“And” between values parts separate entries of the source, which are not always exact repeats. Identical values can stand only once.

What was measured:
[1] = tested on: diet-induced obese (DIO) AKR/J mouse; assay: Body weight, body composition (qMR) and liver weight in diet-induced obese AKR/J mice; assay type: in vivo; conditions: for BW day 28 / effect on FM (in words) / effect on LM (in words) / increase in liver weight / effect on BW (in words) / Fat mass day 28 / Lean mass day 28 / Liver weight: 28 days; for effect on FM (in words) / effect on LM (in words): doses as in methods; for increase in liver weight: PPARα agonist 1 mg/kg or PPARδ agonist 30 mg/kg alone; for BW day 0: baseline before treatment; for effect on BW (in words): oral, GW9578 1, GW0742 30, GW7845 3, RIM 10 and 30 mg/kg, PPARpan agonists; for Fat mass day 28 / Lean mass day 28: qMR; for Liver weight: terminal collection
Method: The effects of monotherapy with selective PPAR agonists, combination therapy with PPARα and PPARδ, and treatment with PPARpan agonists were evaluated in four experiments in diet-induced obese (DIO) AKR/J mouse. The AKR/J mouse is a polyoma-susceptible strain originally utilized to study accelerated tumor development. This strain becomes obese and hyperinsulemic when fed a high fat diet. Age-matched, male AKR/J mice were allowed ad libitum access to Research Diet D12331 (Research Diet, Brunswick, NJ) at the Jackson Laboratories (Bar Harbor, ME) beginning at 6 weeks of age. The diet has an energy density of 5.56 kcal/g (58% kcal from fat; 26% kcal from carbohydrates, and 16% kcal from protein). The animals were allowed to become obese, achieving BW >40 grams before shipping to GlaxoSmithKline laboratory animal facility at 13 weeks of age. The mice were housed 4 per cage in standard shoebox cages and were fed the high fat diet until they reached approximately 50 grams. Age-matched lean control animals obtained from Jackson Laboratories were fed a diet of normal chow (3.04 kcal/g energy density, 12% kcal from fat, LabDiet 5001, St. Louis, MO) and used for comparison.
At the beginning of each study, the animals were weighed and body composition obtained using an EchoMRI-100 quantitative magnetic resonance (qMR, EchoMRI, Houston, TX) whole body composition analyzer. […] 16 lean control mice on standard chow were used as reference. All mice were dosed orally with vehicle (0.5% methylcellulose and 0.1% Tween 80, 10 mL/kg) for six days prior to the beginning of dosing for acclimation to handling and treatment before drug treatment was initiated.
In each experiment, BW of each animal was measured and recorded three times weekly throughout the treatment period. Body mass was obtained weekly on days 0, 7, 13, 20, and 27 of treatment. The effects of selective PPARα, δ, and γ agonists on food consumption were also assessed. Food consumption is expressed as total energy consumed (kcal) over a 24-period and as cumulative consumption over the course of the experiment.
(§1) On the final day of each experiment, a terminal blood sample (800–1000 μL) was obtained via cardiac puncture under isoflurane anesthesia. Whole blood was placed in a Terumo Capiject blood collection tube (Terumo Medical Corp., Elkton, Md, USA), allowed to sit at room temperature for 20 minutes then centrifuged to obtain serum. Serum levels of glucose, triglycerides, glycerol, nonesterified fatty acids, total cholesterol, the high-density lipoprotein cholesterol, and β-hydroxybutyrate were determined in all mice using an Olympus AU640 clinical chemistry immuno-analyzer (Olympus America Inc., Melville, NY, USA). In addition, liver weights were obtained following the terminal blood sample on the final day of the study and samples were used to determine liver fatty acid oxidation activity.
Experiment 1 was designed to study the effects of a selective PPARα agonist and PPARδ agonist as mono and combination therapy. 48 mice were sorted into 6 groups and blocked such that initial BW and body composition were not different between groups. […] Two additional groups of mice were dosed for the first 14 days with either a PPARα agonist or a PPARδ agonist alone. At day 15, the PPARδ agonist was added to the treatment regimen of animals dosed with PPARα, and the PPARα agonist was added to the dosing material of animals previously dosed with PPARδ alone. The sixth group was dosed with both the PPARα and PPARδ agonists for the entire 28-day period. BW and food consumption were assessed 3 times per week and body composition was measured weekly.
In Experiment 2, 32 mice were sorted into 4 groups (n = 8/group) and dosed with vehicle and a selective PPARγ agonist (GW7845, 3 mg/kg) for 28 days. Rimonabant (RIM, 10 or 30 mg/kg, q.d.), a CB1 receptor antagonist, was used as a positive control for weight loss. […]

[2] = tested on: diet-induced obese (DIO) AKR/J mouse; assay: Serum clinical chemistry of terminal blood samples, DIO AKR/J mice; assay type: in vivo; conditions: for Cholesterol / Glucose / HDL-C / Insulin / NEFA / Triglyceride / bHBA: serum, end of treatment, 28 days; for effect on serum chemistry (in words): terminal serum after 28 days
Method: as §1

murine PPARα = molecular target: T1, murine PPARα (Mus musculus, UniProt P23204); assay: PPAR-GAL4 transient transfection transactivation assay (SPAP reporter) in CV-1 cells, PPARα; assay type: cell-based; conditions: for EC50: CV-1 cells, GAL4 chimera, read-out: mPPARα, murine receptor activation EC50; for mPPARα %Max: maximal activation vs reference comparator
T1 construct: expressed in transfected cells; host or cells: CV-1 cells
T1 sequence (P23204 239-466 limits assumed): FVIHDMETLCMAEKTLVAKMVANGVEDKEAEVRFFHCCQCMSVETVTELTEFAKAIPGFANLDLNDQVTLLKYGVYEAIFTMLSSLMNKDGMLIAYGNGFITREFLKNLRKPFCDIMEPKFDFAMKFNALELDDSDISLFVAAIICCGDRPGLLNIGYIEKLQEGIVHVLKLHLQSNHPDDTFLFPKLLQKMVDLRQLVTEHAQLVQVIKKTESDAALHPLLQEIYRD
Method: The functional potency of selected ligands was evaluated using a transient transfection assay in CV-1 cells. The ligand binding domains for murine PPARα, PPARδ, and PPARγ were fused to the yeast transcription factor GAL4 DNA binding domain as a chimera. CV-1 cells were propagated and transiently transfected with expression vectors for the respective PPAR chimera as previously described. Test compounds were compared to reference comparators that give maximum responses in this assay. Compounds which produced an activation of at 70% or greater, compared to a positive control, were considered full agonists.

murine PPARδ = molecular target: T2, murine PPARδ (Mus musculus, UniProt P35396); assay: PPAR-GAL4 transient transfection transactivation assay (SPAP reporter) in CV-1 cells, PPARδ; assay type: cell-based
T2 construct: expressed in transfected cells; host or cells: CV-1 cells
T2 sequence (P35396 210-438 limits assumed): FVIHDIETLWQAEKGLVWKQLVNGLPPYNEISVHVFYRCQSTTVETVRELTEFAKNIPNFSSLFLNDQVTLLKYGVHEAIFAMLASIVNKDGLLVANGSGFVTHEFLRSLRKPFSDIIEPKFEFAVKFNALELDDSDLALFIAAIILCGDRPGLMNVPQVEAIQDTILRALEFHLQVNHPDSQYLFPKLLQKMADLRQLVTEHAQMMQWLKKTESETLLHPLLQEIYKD
Method: The functional potency of selected ligands was evaluated using a transient transfection assay in CV-1 cells. The ligand binding domains for murine PPARα, PPARδ, and PPARγ were fused to the yeast transcription factor GAL4 DNA binding domain as a chimera. CV-1 cells were propagated and transiently transfected with expression vectors for the respective PPAR chimera as previously described.

Cc1cc(SCc2sc(-c3ccc(C(F)(F)F)c(F)c3)nc2C)ccc1OCC(=O)O [GW0742]
BW day 28 ([1]; 30 mg/kg oral): 50.2 ± 1.2 grams | effect on FM (in words) [1]: slight decrease in FM | effect on LM (in words) [1]: LM was unaffected | increase in liver weight [1]: ~1 gram | BW day 0 ([1]; group dosed 30 mg/kg oral): 51.6 ± 1.1 grams | effect on BW (in words) [1]: neither compound induced a sustained decrease in BW | Fat mass day 28 ([1]; 30 mg/kg oral): 18.4 ± 0.7 grams | Lean mass day 28 ([1]; 30 mg/kg oral): 29.7 ± 0.7 grams | Liver weight ([1]; 30 mg/kg oral): 3.2 ± 0.1 grams | Cholesterol ([2]; 30 mg/kg oral): 171.9 ± 2.9 mg/dL | Glucose ([2]; 30 mg/kg oral): 253.3 ± 8.9 mg/dL | HDL-C ([2]; 30 mg/kg oral): 118.4 ± 1.6 mg/dL | Insulin ([2]; 30 mg/kg oral): 2.2 ± 1.2 ng/mL | NEFA ([2]; 30 mg/kg oral): 0.9 ± 0.02 mEq/L | Triglyceride ([2]; 30 mg/kg oral): 174.9 ± 10.3 mg/dL | bHBA ([2]; 30 mg/kg oral): 3.8 ± 0.3 mg/dL | effect on serum chemistry (in words) [2]: significantly reduced circulating insulin (INS) levels | EC50 (murine PPARα): 8.81 µM | mPPARα %Max (murine PPARα): 55%

COC(=O)c1ccccc1N[C@@H](Cc1ccc(OCCc2nc(-c3ccccc3)oc2C)cc1)C(=O)O [GW7845]
EC50 (murine PPARδ; CV-1 cells, GAL4 chimera, read-out: mPPARδ, murine receptor activation EC50): 10 µM | mPPARδ %Max (murine PPARδ; maximal activation vs reference comparator): 12% | BW day 28 ([1]; 3 mg/kg oral): 54.6 ± 1.7 grams | effect on FM (in words) [1]: significant increase in FM | BW day 0 ([1]; group dosed 3 mg/kg oral): 50.9 ± 1.2 grams | effect on BW (in words) [1]: steady and consistent increase in BW | Fat mass day 28 ([1]; 3 mg/kg oral): 23.5 ± 1.3 grams | Lean mass day 28 ([1]; 3 mg/kg oral): 28.7 ± 0.6 grams | Liver weight ([1]; 3 mg/kg oral): 2.0 ± 0.1 grams | Cholesterol ([2]; 3 mg/kg oral): 106.1 ± 4.2 mg/dL | Glucose ([2]; 3 mg/kg oral): 222.3 ± 9.4 mg/dL | HDL-C ([2]; 3 mg/kg oral): 65.0 ± 0.9 mg/dL | Insulin ([2]; 3 mg/kg oral): 2.1 ± 0.4 ng/mL | NEFA ([2]; 3 mg/kg oral): 0.6 ± 0.03 mEq/L | Triglyceride ([2]; 3 mg/kg oral): 112.3 ± 5.7 mg/dL | bHBA ([2]; 3 mg/kg oral): 1.5 ± 0.1 mg/dL | effect on serum chemistry (in words) [2]: significant reduction in circulating INS, TG, and NEFA levels | EC50 (murine PPARα): 10.8 µM | mPPARα %Max (murine PPARα): 30%

CCCCCCCN(CCc1ccc(SC(C)(C)C(=O)O)cc1)C(=O)Nc1ccc(F)cc1F [GW9578]
BW day 28 ([1]; 1 mg/kg oral): 51.3 ± 1.6 grams | effect on FM (in words) [1]: slight decrease in FM | effect on LM (in words) [1]: LM was unaffected | increase in liver weight [1]: ~1 gram | BW day 0 ([1]; group dosed 1 mg/kg oral): 52.1 ± 1.1 grams | effect on BW (in words) [1]: neither compound induced a sustained decrease in BW | Fat mass day 28 ([1]; 1 mg/kg oral): 18.4 ± 0.9 grams | Lean mass day 28 ([1]; 1 mg/kg oral): 30.9 ± 0.8 grams | Liver weight ([1]; 1 mg/kg oral): 2.6 ± 0.1 grams | Cholesterol ([2]; 1 mg/kg oral): 117.1 ± 4.1 mg/dL | Glucose ([2]; 1 mg/kg oral): 248.0 ± 16.6 mg/dL | HDL-C ([2]; 1 mg/kg oral): 86.6 ± 2.7 mg/dL | Insulin ([2]; 1 mg/kg oral): 3.1 ± 1.6 ng/mL | NEFA ([2]; 1 mg/kg oral): 0.9 ± 0.04 mEq/L | Triglyceride ([2]; 1 mg/kg oral): 168.3 ± 15.4 mg/dL | bHBA ([2]; 1 mg/kg oral): 3.2 ± 1.1 mg/dL | effect on serum chemistry (in words) [2]: significantly reduced circulating insulin (INS) levels | EC50 (murine PPARα): 0.008 µM and 0.0081 µM | mPPARα %Max (murine PPARα): 95% | selectivity for PPARα over PPARγ and PPARδ (murine PPARα; murine receptors): > 250 fold
